Experimental data taken from US4110327A, “2,3 Diketo-piperazinocarbonylamino alkanoic acids and derivatives” (Toyama Chemical Co., Ltd., priority 1974, dated 1978).

What was measured:
[1] = Acute toxicity LD50 i.v. in mouse; settings: in vivo, iv
Description: The present penicillins and cephalosporins have generally low toxicity.

Salmonella typhi = assay: MIC against clinical isolates; assay type: cell-based; settings: unit assumed
Proteus morganii = assay: MIC against clinical isolates; assay type: cell-based; settings: clinical isolate, unit assumed
Proteus vulgaris = assay: MIC against clinical isolates; assay type: cell-based; settings: clinical isolate, unit assumed
Staphylococcus aureus = assay: MIC against clinical isolates; assay type: cell-based; settings: unit assumed
[2] = test system: Pseudomonas aeruginosa I.F.O.; assay: MIC against standard strain, plate method; assay type: cell-based; settings: unit assumed
Procedure, shortened: (§1)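 Minimum inhibitory concentrations were determined on agar plates of heart infusion medium (pH 7.4) inoculated with 10^4 cells per plate.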

[3] = test system: Staphylococcus aureus 209p; assay: MIC against standard strain, plate method; assay type: cell-based; settings: unit assumed
Procedure, shortened: as §1

Proteus vulgaris 3027 = assay: MIC against standard strain, plate method; assay type: cell-based; settings: Proteus vulgaris 3027, standard strain; unit assumed
Procedure, shortened: as §1

Klebsiella pneumoniae [4] = assay: MIC against standard strain, plate method; assay type: cell-based; settings: unit assumed
Procedure, shortened: as §1

Escherichia coli NIHJ = assay: MIC against standard strain, plate method; assay type: cell-based; settings: unit assumed
Procedure, shortened: as §1

Proteus rettgeri = assay: MIC against clinical isolates; assay type: cell-based; settings: clinical isolate, unit assumed
β-lactamase = assay: Resistant activity against β-lactamase, iodometric assay; assay type: biochemical, Pseudomonas aeruginosa GN 238; settings: relative to Potassium Penicillin G = 100
Experimental: (3) Resistant activity against β-lactamase, Pseudomonas aergionan GN 238:
The resistant activity of each compound against β-lactamase was measured in the manner described below.
β-Lactamase was prepared from Pseudomonas aeruginosa GN 238. This microorganism was cultured in 100 ml of a medium containing 2 g of yeast extract, 10 g of polypeptone, 2 g of glucose, 7 g of disodium hydrogen phosphate, 2 g of potassium dihydrogen phosphate, 1.2 g of ammonium sulfate and 0.4 g of magnesium sulfate, per liter, in a 500-ml Erlenmeyer flask for 6 hrs. at 37° C with shaking. The resulting cells were collected by centrifugation (5,000 r.p.m. × 10 min.), washed three times with 0.1 M phosphate buffer (pH 7.0). Subsequently, the cells were subjected to sonication (20 KHz, 20 min.) and then centrifuged at 15,000 r.p.m. for 60 min. By using the supernatant of enzyme fluid, the resistance of each compound against β-lactamase was determined by the iodometric assay method. Each numeral shown in Table 7 is a relative activity value calculated by assuming as 100 the activity of the control Potassium Penicillin G.

Escherichia coli = assay: MIC against clinical isolates; assay type: cell-based; settings: unit assumed
Salmonella typhi-murium = assay: MIC against clinical isolates; assay type: cell-based; settings: unit assumed
Pseudomonas aeruginosa = assay: MIC against clinical isolates; assay type: cell-based; settings: unit assumed
Shigella sonnei = assay: MIC against clinical isolates; assay type: cell-based; settings: unit assumed
Experimental: (§2) The minimum inhibitory concentrations (MIC) was determined by the plate method disclosed in "Chemotherapy" (Japan), Vol. 16, (1968), pages 98 - 99. The culture medium used was a Heart infusion agar (pH 7.4). The number of the cells per plate used in the inoculum as 10^4 (10^6 cells/ml).
(§3) MIC was determined in the same manner as in the preceding paragraph (1).

Shigella flexneri = assay: MIC against clinical isolates; assay type: cell-based; settings: unit assumed
Experimental: as §2, §3

Proteus mirabilis = assay: MIC against clinical isolates; assay type: cell-based; settings: clinical isolate, unit assumed
Klebsiella pneumoniae [5] = assay: MIC against clinical isolates; assay type: cell-based; settings: unit assumed

CCN1CCN(C(=O)N[C@@H](C(=O)N[C@@H]2C(=O)N3[C@@H]2SC(C)(C)[C@@H]3C(=O)O)c2ccccc2)C(=O)C1=O
> 5000 mg/kg: LD50 [1]

CN1CCN(C(=O)N[C@@H](C(=O)N[C@@H]2C(=O)N3[C@@H]2SC(C)(C)[C@@H]3C(=O)O)c2ccccc2)C(=O)C1=O
> 5000 mg/kg: LD50 [1]

CCCCN1CCN(C(=O)N[C@@H](C(=O)N[C@@H]2C(=O)N3[C@@H]2SC(C)(C)[C@@H]3C(=O)O)c2ccccc2)C(=O)C1=O (single isomer, unassigned) [compound 39]
100 µg/mL: MIC (Salmonella typhi-murium; clinical isolate SL 2136)
0.4 µg/mL: MIC [3] | MIC (Proteus vulgaris 3027)
12.5 µg/mL: MIC (Pseudomonas aeruginosa; clinical isolate GN 1035) | MIC (Pseudomonas aeruginosa; clinical isolate GN 2565) | MIC (Pseudomonas aeruginosa; clinical isolate S-1) | MIC (Pseudomonas aeruginosa; clinical isolate S-2) | MIC (Pseudomonas aeruginosa; clinical isolate S-4)
6.25 µg/mL: MIC (Staphylococcus aureus; clinical isolate F-1) | MIC (Staphylococcus aureus; clinical isolate F-4) | MIC [2] | MIC (Proteus rettgeri) | MIC (Pseudomonas aeruginosa; clinical isolate GN 376) | MIC (Pseudomonas aeruginosa; clinical isolate GN 383) | MIC (Pseudomonas aeruginosa; clinical isolate GN (number not given; Table 5-3))
< 0.4 µg/mL: MIC (Proteus morganii) | MIC (Proteus vulgaris) | MIC (Proteus mirabilis)
< 0.1 µg/mL: MIC (Escherichia coli NIHJ)
> 200 µg/mL: MIC (Staphylococcus aureus; clinical isolate F-5) | MIC (Escherichia coli; clinical isolate GN 3611) | MIC (Escherichia coli; clinical isolate K-3)
1.57 µg/mL: MIC (Staphylococcus aureus; clinical isolate F-2) | MIC (Staphylococcus aureus; clinical isolate F-3) | MIC (Staphylococcus aureus; clinical isolate MS 8588) | MIC (Staphylococcus aureus; clinical isolate MS 8596) | MIC (Klebsiella pneumoniae [4]) | MIC (Escherichia coli; clinical isolate GN 3481) | MIC (Escherichia coli; clinical isolate K-1) | MIC (Escherichia coli; clinical isolate K-2) | MIC (Shigella sonnei; clinical isolate JS 11755) | MIC (Klebsiella pneumoniae [5]; clinical isolate GN 917)
0.79 µg/mL: MIC (Salmonella typhi; clinical isolate SL 819) | MIC (Salmonella typhi; clinical isolate SL 2169) | MIC (Staphylococcus aureus; clinical isolate MS 8619) | MIC (Escherichia coli; clinical isolate GN 3435) | MIC (Escherichia coli; clinical isolate GN 3452) | MIC (Escherichia coli; clinical isolate K-4) | MIC (Salmonella typhi-murium; clinical isolate SL 858) | MIC (Shigella flexneri; clinical isolate JS 11839)
25 µg/mL: MIC (Escherichia coli; clinical isolate GN 3465) | MIC (Pseudomonas aeruginosa; clinical isolate S-3) | MIC (Shigella sonnei; clinical isolate JS 11232) | MIC (Shigella flexneri; clinical isolate JS 11215) | MIC (Klebsiella pneumoniae [5]; clinical isolate GN 4081) | MIC (Klebsiella pneumoniae [5]; clinical isolate GN 4117)
15%: Relative activity (β-lactamase)
3.13 µg/mL: MIC (Staphylococcus aureus; clinical isolate MS 8684) | MIC (Staphylococcus aureus; clinical isolate MS 8713) | MIC (Pseudomonas aeruginosa; clinical isolate GN 82) | MIC (Pseudomonas aeruginosa; clinical isolate GN 163) | MIC (Pseudomonas aeruginosa; clinical isolate GN 221) | MIC (Pseudomonas aeruginosa; clinical isolate GN 1091) | MIC (Pseudomonas aeruginosa; clinical isolate GN 2987) | MIC (Klebsiella pneumoniae [5]; clinical isolate GN 3850)
